pEC50: −log10 of the molar value. Where no end group is shown, it is not given here.
How the values were obtained:
[1] = system: formalin-induced inflammatory pain model; parameters: species or system SD rats; details: rat, in vivo
[2] = system: gastrointestinal peristalsis; assay: Effect on gastrointestinal peristalsis (charcoal propulsion); details: 3 mg/kg, single subcutaneous injection, SD rats
hKOR = target: T1, hKOR (Homo sapiens, UniProt P41145); assay: Agonistic function, cAMP method, 293-KOR cells; type: cell-based; details: forskolin
T1 construct: expressed in transfected cells; host or cells: Human embryonic kidney cells 293 (293-KOR)
T1 sequence (P41145 whole entry): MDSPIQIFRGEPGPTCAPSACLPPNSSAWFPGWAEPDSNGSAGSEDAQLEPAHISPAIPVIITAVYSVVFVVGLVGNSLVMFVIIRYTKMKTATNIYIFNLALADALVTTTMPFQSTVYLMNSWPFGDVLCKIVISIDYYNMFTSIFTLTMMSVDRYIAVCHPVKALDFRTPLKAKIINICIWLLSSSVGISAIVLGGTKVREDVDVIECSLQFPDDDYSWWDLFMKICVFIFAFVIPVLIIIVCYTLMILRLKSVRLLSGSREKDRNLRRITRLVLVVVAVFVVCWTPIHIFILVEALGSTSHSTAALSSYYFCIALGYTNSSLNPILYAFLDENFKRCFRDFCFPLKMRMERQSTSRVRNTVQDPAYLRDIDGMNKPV
Experimental: • a. […] Prepare 8 × drug-containing solution with buffe. • c. […] Incubate for 1 h at room temperature. • j.

Compound	MPE% [1] [%]	effect on the gastrointestinal peristalsis in rats (charcoal propulsion rate) [2]	pEC50 (hKOR)	Emax (hKOR) [%]
CN1CC[C@]23c4c5ccc(O)c4O[C@H]2[C@@H](O)C=C[C@H]3[C@H]1C5 [Morphine]	75.9±28.9	significant inhibitory effect		
YGGFLRRIRP [Dynorphin A1-10]			9.19	102
